In assay [1] the test system is Mycobacterium tuberculosis rpoB gene mutants. More on the design: key to DRUG-SUSCEPTIBILITY: R represents resistance; S represents susceptibility. Particulars: cited from earlier work.
The subject of assay [2] is Mycobacterium tuberculosis. Type of assay: cell-based.

Molecules are shown by their SMILES. Read-outs that look alike come from different tables or passages of the source.

Turning to `CO[C@H]1/C=C/O[C@@]2(C)Oc3c(C)c(O)c4c(c3C2=O)C2=NC3(CCN(CC(C)C)CC3)NC2=C(NC(=O)/C(C)=C\C=C\[C@H](C)[C@H](O)[C@@H](C)[C@@H](O)[C@@H](C)[C@H](OC(C)=O)[C@@H]1C)C4=O` [rifabutin, Rifabutin], the DRUG-SUSCEPTIBILITY result in assay [1] (509 MUTANT (probe Mt509)) was “S”; in assay [1] (509 WILD TYPE (probe Wt509)), “RFP-S, RBU-S”; in assay [1] (524 MUTANT (probe Mt524)), “RFP-R, RBU-R”; in assay [1] (524 WILD TYPE (probe Wt524)), “RFP-S, RBU-S”; in assay [1] (533 MUTANT (probe Mt533)), “RFP-R, RBU-R”; in assay [1] (533 WILD TYPE (probe Wt533)), “RFP-S, RBU-S”. The “drug-susceptibility of codon 526 mutants” value is listed as “susceptibility” in assay [1] (codon 526 His>Gln, Gly, Asn, Ala, or Cys) and “resistance” in assay [1] (codon 526 His>Tyr, Pro, Arg, or Asp).
As for `CO[C@H]1/C=C/O[C@@]2(C)Oc3c(C)c(O)c4c(O)c(c(/C=N/N5CCN(C)CC5)c(O)c4c3C2=O)NC(=O)/C(C)=C\C=C\[C@H](C)[C@H](O)[C@@H](C)[C@@H](O)[C@@H](C)[C@H](OC(C)=O)[C@@H]1C` [rifampin], the DRUG-SUSCEPTIBILITY result in assay [1] (509 MUTANT (probe Mt509)) is “R”; in assay [1] (509 WILD TYPE (probe Wt509)), “RFP-S, RBU-S”; in assay [1] (524 MUTANT (probe Mt524)) it was “RFP-R, RBU-R”; in assay [1] (524 WILD TYPE (probe Wt524)), “RFP-S, RBU-S”; in assay [1] (533 MUTANT (probe Mt533)), “RFP-R, RBU-R”; in assay [1] (533 WILD TYPE (probe Wt533)) it was “RFP-S, RBU-S”. Moreover, the drug-susceptibility test result in assay [2] is listed as “resistance”.

The values are drawn from patent US20040038233A1, “Diagnosis kit for mycobacterium species indentification and drug-resistance detection and manufacturing method thereof” (priority 2000, published 2004).
